24 molecules from PubChem BioAssay (NCI) can be followed below.

Each structure is given as a SMILES string.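 Where inhibition never reached the appropriate level, the endpoint shown equals the highest concentration tested. Otherwise, values were interpolated linearly from a five-concentration, 48-hour dose response in 96-well plates. GI50 marks 50% less growth. TGI: concentration producing complete growth inhibition.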 Bounds are passed on as bounds.

For the first assay, the system named is U251 CNS. Nature of the assay: DTP human tumour cell line panel, 48 h.
With `Cn1cnc([N+](=O)[O-])c1Sc1nc2ccccc2[nH]1`, the TGI (usually the concentration giving total growth inhibition) was found to be 74.5 µM.
Same read-out and setting: the value for `N#CC(C#N)=CNC(N)=S` was > 100 µM.
Same read-out and setting: as for `COc1cc2c(c(OC)c1OC)-c1ccc(OC)c(=O)cc1C(NC(=O)c1ccc(N=[N+]=[N-])cc1)CC2` (configuration not stated), the figure is 4 µM.
Still for that read-out and setting: the value for `CCCCCCCCC/C=C1\CCC(CN2CCOCC2)C1=O` (configuration not stated) was 3.73 µM; that for `CCCCCCN(CCCCCC)C(=O)Cc1c2n(c3ccccc13)Cc1ccccc1-2` was > 100 µM.
Take `CC(=O)[C@@]12O[C@@H]1CC1C3CCC4=CC(O)CCC4(C)C3CCC12C` (some centres not stated): the GI50 (in general, the concentration at which growth is held to half of that of the control) was 19.1 µM and the total growth inhibition concentration (TGI) is 41.3 µM.
Regarding `C/C(=N\NC(=S)NC(CCC(=O)O)C(=O)O)c1ccccn1` (configuration not stated), the total growth inhibition concentration (TGI) is > 100 µM.
On the same count and under the same terms, the value for `Brc1ccccc1C1SCc2nc3ccccc3n21` (configuration not stated) was 29.7 µM; that for `C=C(Br)C(C)(Br)CCC(Br)C(C)(C)Cl` (configuration not stated) was 29.7 µM.
As for `CCc1cc(Cc2cc(CC)c(NC(=O)C(=O)Cc3ccccn3)c(CC)c2Cl)c(Cl)c(CC)c1NC(=O)C(=O)Cc1ccccn1`, the TGI amounted to 46.1 µM.
Turning to `CC(C)OP(=O)(OC(C)C)C(=NCCN=C(NNc1ccc([N+](=O)[O-])cc1)P(=O)(OC(C)C)OC(C)C)NNc1ccc([N+](=O)[O-])cc1`, the TGI was 91.2 µM.
On the same count and under the same terms, as for `C#CC1(O)CCC2C3CCc4cc(Oc5nc(F)nc(-c6c7ccccc7c7sc8ccccc8n67)n5)ccc4C3CC[C@@]21C` (some centres not stated), the figure is > 100 µM.
`Clc1ccc(C(c2ccc(Cl)cc2)c2ccccn2)cc1` yielded a TGI of 30.9 µM.
Same read-out and setting: as for `CC(C)(C)OC(=O)N[C@H]1CC2(C=C(Cl)C(=O)C(Cl)=C2)OC1=O`, the figure is 45.2 µM; as for `O=c1cc(-c2ccccc2)oc2cc(OCCCOc3ccc4c(=O)cc(-c5ccccc5)oc4c3)ccc12`, > 100 µM.

Another assay relates to LOX IMVI melanoma. Nature of the assay: DTP human tumour cell line panel, 48 h.
In the case of `CN(C(=O)c1ccc(C(F)(F)F)cc1)c1ccc(Oc2ccc3c(c2)cc(C(=O)N2CCN(Cc4ccc(OC(F)F)cc4)CC2)n3C)nc1`, the GI50 is 0.882 µM and the TGI is > 100 µM.
With `Cc1cc(-c2ccc3nc(C4CCOCC4)n(CCOC(F)(F)F)c3c2)cn(C)c1=O`, the TGI amounted to 1.06 µM.
Take `Nc1ncnc2c1nnn2C1OC(CO)C(O)C1O` (configuration not stated): the TGI stood at 3.77 µM.
Regarding `COc1cc(/C=C2\CN(S(=O)(=O)c3ccccc3)C/C(=C\c3cc(CN4CCCC4)c(O)c(OC)c3)C2=O)cc(CN2CCCC2)c1O`, the GI50 was 0.332 µM and the TGI was determined as 1.14 µM.
For the molecule `CN1CCN(CCCn2c(=O)c3sc4ncccc4c3n3nnc(-c4ccccc4)c23)CC1`, the GI50 is 5.33 µM and the TGI is 11.5 µM.
`CC(=O)OC1COC(n2ccc3cc(Br)c([N+](=O)[O-])cc32)C(OC(C)=O)C1OC(C)=O` (configuration not stated) had a total growth inhibition concentration (TGI) of 40.7 µM.
The molecule `NC1(C(=O)OCc2ccccc2)CCCC1` came in with a TGI of 37.7 µM.
As for `O=C(/C=C/c1ccc(Cl)cc1)c1ccc(Nc2ccnc3cc(Cl)ccc23)cc1`, the GI50 is > 46.6 µM and the TGI was > 100 µM.
On to `COc1cc(C2c3cc4c(cc3OC(C)(O)C2C)OCO4)cc(OC)c1OC` (configuration not stated), for which the TGI was > 100 µM.
The same measure, in the same setting: the value for `Cn1cnc([N+](=O)[O-])c1Sc1nc2ccccc2[nH]1` was 51 µM; that for `N#CC(C#N)=CNC(N)=S` was > 100 µM; that for `COc1cc2c(c(OC)c1OC)-c1ccc(OC)c(=O)cc1C(NC(=O)c1ccc(N=[N+]=[N-])cc1)CC2` (configuration not stated) was 24.9 µM.
As to `CCCCCCCCC/C=C1\CCC(CN2CCOCC2)C1=O` (configuration not stated), the TGI came to 2.02 µM.
On to `CCCCCCN(CCCCCC)C(=O)Cc1c2n(c3ccccc13)Cc1ccccc1-2`, for which the TGI is > 100 µM.
Consider `CC(=O)[C@@]12O[C@@H]1CC1C3CCC4=CC(O)CCC4(C)C3CCC12C` (some centres not stated), for which the GI50 is 44.4 µM and the TGI is > 100 µM.
Consider `C/C(=N\NC(=S)NC(CCC(=O)O)C(=O)O)c1ccccn1` (configuration not stated), for which the TGI was > 100 µM.
In turn, `Brc1ccccc1C1SCc2nc3ccccc3n21` (configuration not stated) yielded a TGI of 26 µM.
Still for that read-out and setting: as for `CCc1cc(Cc2cc(CC)c(NC(=O)C(=O)Cc3ccccn3)c(CC)c2Cl)c(Cl)c(CC)c1NC(=O)C(=O)Cc1ccccn1`, the figure is > 100 µM; as for `CC(C)OP(=O)(OC(C)C)C(=NCCN=C(NNc1ccc([N+](=O)[O-])cc1)P(=O)(OC(C)C)OC(C)C)NNc1ccc([N+](=O)[O-])cc1`, > 100 µM.
Molecule `Clc1ccc(C(c2ccc(Cl)cc2)c2ccccn2)cc1` showed a concentration for total growth inhibition (TGI) of 30.4 µM.
`CC(C)(C)OC(=O)N[C@H]1CC2(C=C(Cl)C(=O)C(Cl)=C2)OC1=O` came in with a TGI of 34.5 µM.
As to `O=c1cc(-c2ccccc2)oc2cc(OCCCOc3ccc4c(=O)cc(-c5ccccc5)oc4c3)ccc12`, the TGI was > 100 µM.

Another assay deals with NCI/ADR-RES ovarian. Description: DTP human tumour cell line panel, 48 h.
Consider `CN(C(=O)c1ccc(C(F)(F)F)cc1)c1ccc(Oc2ccc3c(c2)cc(C(=O)N2CCN(Cc4ccc(OC(F)F)cc4)CC2)n3C)nc1`, for which the GI50 was 0.437 µM and the TGI was > 100 µM.
Take `Cc1cc(-c2ccc3nc(C4CCOCC4)n(CCOC(F)(F)F)c3c2)cn(C)c1=O`: the GI50 was 0.918 µM.
Consider `Nc1ncnc2c1nnn2C1OC(CO)C(O)C1O` (configuration not stated), for which the TGI amounted to 9.32 µM.
Regarding `COc1cc(/C=C2\CN(S(=O)(=O)c3ccccc3)C/C(=C\c3cc(CN4CCCC4)c(O)c(OC)c3)C2=O)cc(CN2CCCC2)c1O`, the GI50 was > 100 µM and the TGI is > 100 µM.
`CN1CCN(CCCn2c(=O)c3sc4ncccc4c3n3nnc(-c4ccccc4)c23)CC1`: the GI50 is 7.19 µM and the TGI was 14.2 µM.
Turning to `NC1(C(=O)OCc2ccccc2)CCCC1`, the TGI was > 100 µM.
For `O=C(/C=C/c1ccc(Cl)cc1)c1ccc(Nc2ccnc3cc(Cl)ccc23)cc1`, the GI50 was > 100 µM and the TGI was > 100 µM.
For `COc1cc(C2c3cc4c(cc3OC(C)(O)C2C)OCO4)cc(OC)c1OC` (configuration not stated), the TGI was > 100 µM.
As for `N#CC(C#N)=CNC(N)=S`, the TGI is > 100 µM.
As to `CC(=O)[C@@]12O[C@@H]1CC1C3CCC4=CC(O)CCC4(C)C3CCC12C` (some centres not stated), the GI50 is 20.4 µM and the TGI is > 100 µM.
Molecule `C=C(Br)C(C)(Br)CCC(Br)C(C)(C)Cl` (configuration not stated) came in with a TGI of 54.2 µM.

The subject of a further assay is SR leukemia. Nature of the assay: DTP human tumour cell line panel, 48 h.
As for `CN(C(=O)c1ccc(C(F)(F)F)cc1)c1ccc(Oc2ccc3c(c2)cc(C(=O)N2CCN(Cc4ccc(OC(F)F)cc4)CC2)n3C)nc1`, the 50% growth inhibitory concentration (GI50) is < 10 nM and the TGI is > 100 µM.
As for `Cc1cc(-c2ccc3nc(C4CCOCC4)n(CCOC(F)(F)F)c3c2)cn(C)c1=O`, the GI50 was 597 nM and the TGI was 13.4 µM.
Turning to `Nc1ncnc2c1nnn2C1OC(CO)C(O)C1O` (configuration not stated), the GI50 is 49 nM and the TGI was > 12.7 µM.
In the same order, the values of `COc1cc(/C=C2\CN(S(=O)(=O)c3ccccc3)C/C(=C\c3cc(CN4CCCC4)c(O)c(OC)c3)C2=O)cc(CN2CCCC2)c1O` are 458 nM and > 100 µM.
